Test results from ChEMBL document CHEMBL1158087, “Gracilarioside and gracilamides from the red alga Gracilaria asiatica” (2006).

How the values were obtained:
[1] = Cytotoxicity against human A375S2 cells assessed as induction of cell death at 30 ug/mL by MTT assay; type: functional, A375-S2
[2] = Cytotoxicity against human A375S2 cells assessed as induction of cell death at 20 ug/mL by MTT assay; type: functional, A375-S2

| Structure (SMILES) | Activity [1] | Activity [2] |
| --- | --- | --- |
| CCCCCCCCCCCCCCCCCCCCCCC[C@@H](O)C(=O)N[C@@H](CO)[C@H](O)[C@H](O)C/C=C/CCCCC1CC1CCCC (stereo partly drawn) [GRACILAMIDE A] | 11.7% | – |
| CCCCCCCCCCCCCCCCCCCCCC[C@@H](O)[C@@H](O)[C@H](CO)NC(=O)[C@H](O)CCCCCCCCC1CC1CCCC (stereo partly drawn) [GRACILAMIDE B] | 11.7% | – |
| CCCCCCCCCCCCCCCCCCCCCCC[C@@H](O)C(=O)N[C@@H](CO[C@@H]1O[C@H](CO)[C@@H](O)[C@H](O)[C@H]1O)[C@H](O)[C@H](O)C/C=C/CCCCC1CC1CCCC (stereo partly drawn) [GRACILARIOSIDE] | – | 18.2% |
